Tested on: Stress protein genes
Assay: DNA chip mRNA expression in yeast, stress protein genes (Table 6)
Type: cell-based, Saccharomyces cerevisiae S288C
Procedure: Yeast (Saccharomyces cerevisiae S288C (α SUC2mal mel gap2 CUP1)) were incubated at 25° C. on YPD medium (yeast extract 1%, polypepton 2%, glucose 2%). One of toxic chemical substances was added to the cells at logarithmic growth phase, and the cells were further incubated for two hours. Cells were cultured without any chemical substance in the same condition, and were used as control. Concentrations of the chemical substances were defined to inhibit the growth of the yeast but not lead to death.
After completion of the incubation, the culture was centrifuged to collect the cells. To the cells, sodium acetate buffer (50 mM sodium acetate, 10 mM EDTA, 1% SDS) was added, and the mixture was shaken at 65° C. for five minutes, followed by returning to room temperature, and obtaining the supernatant, of which the procedures were repeated two times. To the supernatant, ½ amount of a solution of phenol/chloroform was added, and the mixture was centrifuged to give a supernatant, which was added with an equal amount of chloroform, and the mixture was centrifuged to give a supernatant. To the supernatant, an equal amount of isopropanol containing 0.3 M sodium acetate was added, and the mixture was allowed to stand at room temperature for 30 minutes, after which the mixture was centrifuged to give a sediment of the whole RNAs. Seventy % ethanol was added to the sediment, and the mixture was again centrifuged to give a sediment, which was then dried and dissolved in water. mRNA was isolated from the whole RNAs as followings. In view of the fact that a poly A chain is attached to the 3′ terminus of mRNA, a polynucleotide having a poly T structure which was immobilized on the surface of latex beads was used to trap the mRNA, and then the mRNA was washed and eluted with spine column (Oligotex-dT30<Super>mRNA Purification Kit, Takara). Reverse transcription of the mRNA was conducted with a reverse transcriptase (Super Script II Reverse Transcriptase; catalogue No. 18064-014, GibcoBRL) using fluorescence-labeled nucleotides to give cDNAs that were introduced with Cy3-dUTP or Cy5-dUTP during the reverse transcription.
The labeled cDNAs were dissolved in TE buffer (10mM Tris-HCl/1 mM EDTA, pH8.0), and the solution was dropped on the DNA chip containing the whole genes of yeast (DNA Chip Research Inc. Japan) so that the cDNAs were hybridized on the DNA chip at 65° C. for over 12 hours. The fluoresces intensity of the DNA chip was read with a scanner, and the ratio relative to the fluorescence intensity resulting from the absence of chemical substance was estimated as the following, which is shown in Tables 1 to 9: […]

[Cl][Pb][Cl] [(4), PbCl2] was tested, and the “The level of expressed mRNA in the presence of chemical substance/The level of expressed mRNA in the absence of chemical substance” value (yeast gene YAL005C) was 0.9, the “The level of expressed mRNA in the presence of chemical substance/The level of expressed mRNA in the absence of chemical substance” value (yeast gene YAL015C) was 1.9 and the “The level of expressed mRNA in the presence of chemical substance/The level of expressed mRNA in the absence of chemical substance” value (yeast gene YBL075C) was 1.6. The “The level of expressed mRNA in the presence of chemical substance/The level of expressed mRNA in the absence of chemical substance” value (yeast gene YBL093C) was 1.4, the “The level of expressed mRNA in the presence of chemical substance/The level of expressed mRNA in the absence of chemical substance” value (yeast gene YBR044C) was 1.9 and the “The level of expressed mRNA in the presence of chemical substance/The level of expressed mRNA in the absence of chemical substance” value (yeast gene YBR054W) was 1.7. For the same molecule, the “The level of expressed mRNA in the presence of chemical substance/The level of expressed mRNA in the absence of chemical substance” value (yeast gene YBR067C) was 0.9, the “The level of expressed mRNA in the presence of chemical substance/The level of expressed mRNA in the absence of chemical substance” value (yeast gene YBR072W) was 10.5 and the “The level of expressed mRNA in the presence of chemical substance/The level of expressed mRNA in the absence of chemical substance” value (yeast gene YBR126C) was 1.2. The “The level of expressed mRNA in the presence of chemical substance/The level of expressed mRNA in the absence of chemical substance” value (yeast gene YBR169C) was 1.9, the “The level of expressed mRNA in the presence of chemical substance/The level of expressed mRNA in the absence of chemical substance” value (yeast gene YCL035C) was 1.7 and the “The level of expressed mRNA in the presence of chemical substance/The level of expressed mRNA in the absence of chemical substance” value (yeast gene YCR021C) was 8.6. The “The level of expressed mRNA in the presence of chemical substance/The level of expressed mRNA in the absence of chemical substance” value (yeast gene YCR083W) was 1.8, the “The level of expressed mRNA in the presence of chemical substance/The level of expressed mRNA in the absence of chemical substance” value (yeast gene YDL022W) was 1.5 and the “The level of expressed mRNA in the presence of chemical substance/The level of expressed mRNA in the absence of chemical substance” value (yeast gene YDL025C) was 1.5. For the same molecule, the “The level of expressed mRNA in the presence of chemical substance/The level of expressed mRNA in the absence of chemical substance” value (yeast gene YDR033W) was 1.5, the “The level of expressed mRNA in the presence of chemical substance/The level of expressed mRNA in the absence of chemical substance” value (yeast gene YDR077W) was 2.1 and the “The level of expressed mRNA in the presence of chemical substance/The level of expressed mRNA in the absence of chemical substance” value (yeast gene YDR098C) was 0.8. For the same molecule, the “The level of expressed mRNA in the presence of chemical substance/The level of expressed mRNA in the absence of chemical substance” value (yeast gene YDR155C) was 1.8, the “The level of expressed mRNA in the presence of chemical substance/The level of expressed mRNA in the absence of chemical substance” value (yeast gene YDR258C) was 1.4 and the “The level of expressed mRNA in the presence of chemical substance/The level of expressed mRNA in the absence of chemical substance” value (yeast gene YDR293C) was 1.4. For the same molecule, the “The level of expressed mRNA in the presence of chemical substance/The level of expressed mRNA in the absence of chemical substance” value (yeast gene YDR436W) was 1.4, the “The level of expressed mRNA in the presence of chemical substance/The level of expressed mRNA in the absence of chemical substance” value (yeast gene YDR513W) was 2.6 and the “The level of expressed mRNA in the presence of chemical substance/The level of expressed mRNA in the absence of chemical substance” value (yeast gene YDR519W) was 1.6. The “The level of expressed mRNA in the presence of chemical substance/The level of expressed mRNA in the absence of chemical substance” value (yeast gene YEL030W) was 1.1, the “The level of expressed mRNA in the presence of chemical substance/The level of expressed mRNA in the absence of chemical substance” value (yeast gene YEL039C) was 5.1 and the “The level of expressed mRNA in the presence of chemical substance/The level of expressed mRNA in the absence of chemical substance” value (yeast gene YER042W) was 1.0. For the same molecule, the “The level of expressed mRNA in the presence of chemical substance/The level of expressed mRNA in the absence of chemical substance” value (yeast gene YER057C) was 1.8, the “The level of expressed mRNA in the presence of chemical substance/The level of expressed mRNA in the absence of chemical substance” value (yeast gene YER103W) was 2.1 and the “The level of expressed mRNA in the presence of chemical substance/The level of expressed mRNA in the absence of chemical substance” value (yeast gene YER125W) was 0.9. For the same molecule, the “The level of expressed mRNA in the presence of chemical substance/The level of expressed mRNA in the absence of chemical substance” value (yeast gene YFL014W) was 11.0, the “The level of expressed mRNA in the presence of chemical substance/The level of expressed mRNA in the absence of chemical substance” value (yeast gene YFL016C) was 0.9 and the “The level of expressed mRNA in the presence of chemical substance/The level of expressed mRNA in the absence of chemical substance” value (yeast gene YFL020C) was 1.2. For the same molecule, the “The level of expressed mRNA in the presence of chemical substance/The level of expressed mRNA in the absence of chemical substance” value (yeast gene YFR052W) was 1.5, the “The level of expressed mRNA in the presence of chemical substance/The level of expressed mRNA in the absence of chemical substance” value (yeast gene YGL073W) was 1.0 and the “The level of expressed mRNA in the presence of chemical substance/The level of expressed mRNA in the absence of chemical substance” value (yeast gene YGL115W) was 2.0. The “The level of expressed mRNA in the presence of chemical substance/The level of expressed mRNA in the absence of chemical substance” value (yeast gene YGL181W) was 1.1, the “The level of expressed mRNA in the presence of chemical substance/The level of expressed mRNA in the absence of chemical substance” value (yeast gene YGR088W) was 2.4 and the “The level of expressed mRNA in the presence of chemical substance/The level of expressed mRNA in the absence of chemical substance” value (yeast gene YHL028W) was 0.5. The “The level of expressed mRNA in the presence of chemical substance/The level of expressed mRNA in the absence of chemical substance” value (yeast gene YHL046C) was 1.3, the “The level of expressed mRNA in the presence of chemical substance/The level of expressed mRNA in the absence of chemical substance” value (yeast gene YHR030C) was 2.9 and the “The level of expressed mRNA in the presence of chemical substance/The level of expressed mRNA in the absence of chemical substance” value (yeast gene YHR057C) was 0.9. For the same molecule, the “The level of expressed mRNA in the presence of chemical substance/The level of expressed mRNA in the absence of chemical substance” value (yeast gene YHR104W) was 1.9 and the “The level of expressed mRNA in the presence of chemical substance/The level of expressed mRNA in the absence of chemical substance” value (yeast gene YIL011W) was 0.6.
